Data reported in ChEMBL document CHEMBL1687837, “Roles of residues Cys69, Asn104, Phe160, Gly232, Ser237, and Asp240 in extended-spectrum beta-lactamase Toho-1” (2011).
Converted amounts (≈) assume the structure as drawn.

B1: Beta-lactamase Toho-1 (Escherichia coli), Q47066 (protein)
chain: MMTQSIRRSMLTVMATLPLLFSSATLHAQANSVQQQLEALEKSSGGRLGVALINTADNSQILYRADERFAMCSTSKVMAAAAVLKQSESDKHLLNQRVEIKKSDLVNYNPIAEKHVNGTMTLAELGAAALQYSDNTAMNKLIAHLGGPDKVTAFARSLGDETFRLDRTEPTLNTAIPGDPRDTTTPLAMAQTLKNLTLGKALAETQRAQLVTWLKGNTTGSASIRAGLPKSWVVGDKTGSGDYGTTNDIAVIWPENHAPLVLVTYFTQPEQKAERRRDILAAAAKIVTHGF

Tests used:
Escherichia coli [1] = assay: Antibacterial activity against Escherichia coli AS226 carrying pBSDC69A mutant after 18 hrs by broth microdilution method; format: functional; conditions: AS226, 18 h
Escherichia coli [2] = assay: Antibacterial activity against Escherichia coli AS226 carrying pBSDD240S mutant after 18 hrs by broth microdilution method; format: functional; conditions: AS226, 18 h
Escherichia coli [3] = assay: Antibacterial activity against Escherichia coli AS226 carrying pBSD6 mutant after 18 hrs by broth microdilution method; format: functional; conditions: AS226, 18 h
Escherichia coli [4] = assay: Antibacterial activity against Escherichia coli AS226 after 18 hrs by broth microdilution method; format: functional; conditions: AS226, 18 h
Escherichia coli [5] = assay: Antibacterial activity against Escherichia coli AS226 carrying pBSDN104A mutant after 18 hrs by broth microdilution method; format: functional; conditions: AS226, 18 h
Escherichia coli [6] = assay: Antibacterial activity against Escherichia coli AS226 carrying pBSDS237A mutant after 18 hrs by broth microdilution method; format: functional; conditions: AS226, 18 h
Escherichia coli [7] = assay: Antibacterial activity against Escherichia coli AS226 carrying pBSDD240A mutant after 18 hrs by broth microdilution method; format: functional; conditions: AS226, 18 h
Escherichia coli [8] = assay: Antibacterial activity against Escherichia coli AS226 carrying pBSD-H2 after 18 hrs by broth microdilution method; format: functional; conditions: AS226, 18 h
Escherichia coli [9] = assay: Antibacterial activity against Escherichia coli AS226 carrying pBSDF160T mutant after 18 hrs by broth microdilution method; format: functional; conditions: AS226, 18 h
Escherichia coli [10] = assay: Antibacterial activity against Escherichia coli AS226 carrying pBSDN104D mutant after 18 hrs by broth microdilution method; format: functional; conditions: AS226, 18 h
Escherichia coli [11] = assay: Activity of Escherichia coli beta-lactamase Toho-1 N104A mutant assessed as compound hydrolysis by spectrophotometry
Escherichia coli [12] = assay: Ratio of Kcat to Km for Escherichia coli beta-lactamase Toho-1 N104D mutant assessed as compound hydrolysis by spectrophotometry
Escherichia coli [13] = assay: Activity of Escherichia coli beta-lactamase Toho-1 G232A mutant assessed as compound hydrolysis by spectrophotometry
Escherichia coli [14] = assay: Activity of Escherichia coli beta-lactamase Toho-1 D240A mutant assessed as compound hydrolysis by spectrophotometry
Escherichia coli [15] = assay: Ratio of Kcat to Km for Escherichia coli beta-lactamase Toho-1 N104A mutant assessed as compound hydrolysis by spectrophotometry
Escherichia coli [16] = assay: Ratio of Kcat to Km for Escherichia coli beta-lactamase Toho-1 D240A mutant assessed as compound hydrolysis by spectrophotometry
Escherichia coli [17] = assay: Activity of Escherichia coli beta-lactamase Toho-1 F160T mutant assessed as compound hydrolysis by spectrophotometry
Escherichia coli [18] = assay: Ratio of Kcat to Km for Escherichia coli beta-lactamase Toho-1 […] mutant assessed as compound hydrolysis by spectrophotometry
Escherichia coli [19] = assay: Activity of Escherichia coli beta-lactamase Toho-1 D240S mutant assessed as compound hydrolysis by spectrophotometry
Escherichia coli [20] = assay: Activity of Escherichia coli beta-lactamase Toho-1 C69A mutant assessed as compound hydrolysis by spectrophotometry
Escherichia coli [21] = assay: Ratio of Kcat to Km for Escherichia coli beta-lactamase Toho-1 D240S mutant assessed as compound hydrolysis by spectrophotometry
Escherichia coli [22] = assay: Ratio of Kcat to Km for Escherichia coli beta-lactamase Toho-1 C69A mutant assessed as compound hydrolysis by spectrophotometry
Escherichia coli [23] = assay: Activity of Escherichia coli beta-lactamase Toho-1 […] mutant assessed as compound hydrolysis by spectrophotometry
Escherichia coli [24] = assay: Ratio of Kcat to Km for Escherichia coli beta-lactamase Toho-1 F160T mutant assessed as compound hydrolysis by spectrophotometry
Escherichia coli [25] = assay: Ratio of Kcat to Km for Escherichia coli beta-lactamase Toho-1 G232A mutant assessed as compound hydrolysis by spectrophotometry
Escherichia coli [26] = assay: Activity of Escherichia coli beta-lactamase Toho-1 N104D mutant assessed as compound hydrolysis by spectrophotometry
[27] = substrate: CO/N=C(\C(=O)N[C@@H]1C(=O)N2C(C(=O)O)=C(COC(C)=O)CS[C@H]12)c1csc(N)n1; assay: (§1) Ratio of Kcat to Km for Escherichia coli wild type beta-lactamase Toho-1 assessed as compound hydrolysis by spectrophotometry
[28] = substrate: O=C(Cc1cccs1)N[C@@H]1C(=O)N2C(C(=O)[O-])=C(C[n+]3ccccc3)CS[C@H]12; assay: as §1
[29] = substrate: CC(=O)OCC1=C(C(=O)O)N2C(=O)[C@@H](NC(=O)Cc3cccs3)[C@H]2SC1; assay: as §1
[30] = substrate: C[C@H]1[C@H](NC(=O)/C(=N\OC(C)(C)C(=O)O)c2csc(N)n2)C(=O)N1S(=O)(=O)O; assay: as §1
[31] = substrate: CO/N=C(\C(=O)N[C@@H]1C(=O)N2C(C(=O)O)=C(CSc3cnns3)CS[C@H]12)c1csc(N)n1; assay: as §1
[32] = substrate: CO/N=C(\C(=O)N[C@@H]1C(=O)N2C(C(=O)O)=C(COC(C)=O)CS[C@H]12)c1csc(N)n1; assay: (§2) Activity of Escherichia coli wild type beta-lactamase Toho-1 assessed as compound hydrolysis by spectrophotometry
[33] = substrate: O=C(Cc1cccs1)N[C@@H]1C(=O)N2C(C(=O)[O-])=C(C[n+]3ccccc3)CS[C@H]12; assay: as §2
[34] = substrate: CC(=O)OCC1=C(C(=O)O)N2C(=O)[C@@H](NC(=O)Cc3cccs3)[C@H]2SC1; assay: as §2
[35] = substrate: C[C@H]1[C@H](NC(=O)/C(=N\OC(C)(C)C(=O)O)c2csc(N)n2)C(=O)N1S(=O)(=O)O; assay: as §2
[36] = substrate: CC1(C)S[C@@H]2[C@H](NC(=O)[C@H](N)c3ccccc3)C(=O)N2[C@H]1C(=O)O; assay: as §2
[37] = substrate: CO/N=C(\C(=O)N[C@@H]1C(=O)N2C(C(=O)O)=C(CSc3cnns3)CS[C@H]12)c1csc(N)n1; assay: as §2

Row | Molecule | MIC (Escherichia coli [1]) [µg/mL] | MIC (Escherichia coli [2]) [µg/mL] | MIC (Escherichia coli [3]) [µg/mL] | MIC (Escherichia coli [4]) [µg/mL] | MIC (Escherichia coli [5]) [µg/mL] | MIC (Escherichia coli [6]) [µg/mL] | MIC (Escherichia coli [7]) [µg/mL] | MIC (Escherichia coli [8]) [µg/mL] | MIC (Escherichia coli [9]) [µg/mL] | MIC (Escherichia coli [10]) [µg/mL] | Km (Escherichia coli [11]) [µM] | kcat (Escherichia coli [11]) [s⁻¹] | kcat/Km (Escherichia coli [12]) | Km (Escherichia coli [13]) [µM] | kcat (Escherichia coli [13]) [s⁻¹] | Km (Escherichia coli [14]) [µM] | kcat (Escherichia coli [14]) [s⁻¹] | kcat/Km (Escherichia coli [15]) | kcat/Km (Escherichia coli [16]) | Km (Escherichia coli [17]) [µM] | further results
1 | CC(C)(O/N=C(\C(=O)N[C@@H]1C(=O)N2C(C(=O)[O-])=C(C[n+]3ccccc3)CS[C@H]12)c1csc(N)n1)C(=O)O [CEFTAZIDIME] | 4 (≈ 7.32 µM) | 4 (≈ 7.32 µM) | 0.25 (≈ 0.457 µM) | < 0.125 | < 0.125 | 0.5 (≈ 0.915 µM) | 8 (≈ 14.6 µM) | 0.25 (≈ 0.457 µM) | 1 (≈ 1.83 µM) | < 0.125 | – | – | – | – | – | – | – | – | – | – | –
2 | C[C@H]1[C@H](NC(=O)/C(=N\OC(C)(C)C(=O)O)c2csc(N)n2)C(=O)N1S(=O)(=O)O [AZTREONAM] | 64 (≈ 147 µM) | 64 (≈ 147 µM) | 2 (≈ 4.59 µM) | < 0.125 | 8 (≈ 18.4 µM) | 128 (≈ 294 µM) | 128 (≈ 294 µM) | 64 (≈ 147 µM) | 16 (≈ 36.7 µM) | 1 (≈ 2.3 µM) | 240 | 8.6 | 1.9 ×10⁴ /s/M | 64 | 6.7 | 100 | 15 | 3.5 ×10⁴ /s/M | 1.5 ×10⁵ /s/M | 69 | kcat (Escherichia coli [17]): 6.6 s⁻¹; kcat/Km (Escherichia coli [18]): 2.9 ×10⁵ /s/M; Km (Escherichia coli [19]): 93 µM; kcat (Escherichia coli [19]): 12 s⁻¹; Km (Escherichia coli [20]): 58 µM; kcat (Escherichia coli [20]): 4.5 s⁻¹; kcat/Km (Escherichia coli [21]): 1.3 ×10⁵ /s/M; kcat/Km (Escherichia coli [22]): 7.7 ×10⁴ /s/M; Km (Escherichia coli [23]): 31 µM; kcat (Escherichia coli [23]): 9.1 s⁻¹; kcat/Km (Escherichia coli [24]): 9.6 ×10⁴ /s/M; kcat/Km (Escherichia coli [25]): 1.1 ×10⁵ /s/M
3 | CC(=O)OCC1=C(C(=O)O)N2C(=O)[C@@H](NC(=O)Cc3cccs3)[C@H]2SC1 [CEPHALOTHIN] | 2050 (≈ 5170 µM) | 2050 (≈ 5170 µM) | 128 (≈ 323 µM) | 2 (≈ 5.04 µM) | 512 (≈ 1290 µM) | 2050 (≈ 5170 µM) | 2050 (≈ 5170 µM) | 2050 (≈ 5170 µM) | 2050 (≈ 5170 µM) | 2050 (≈ 5170 µM) | 140 | 180 | 2.8 ×10⁶ /s/M | 150 | 620 | 98 | 320 | 1.2 ×10⁶ /s/M | 3.3 ×10⁶ /s/M | 170 | kcat (Escherichia coli [17]): 690 s⁻¹; Km (Escherichia coli [26]): 70 µM; kcat (Escherichia coli [26]): 200 s⁻¹; kcat/Km (Escherichia coli [18]): 4.8 ×10⁶ /s/M; Km (Escherichia coli [19]): 120 µM; kcat (Escherichia coli [19]): 410 s⁻¹; Km (Escherichia coli [20]): 200 µM; kcat (Escherichia coli [20]): 780 s⁻¹; kcat/Km (Escherichia coli [21]): 3.3 ×10⁶ /s/M; kcat/Km (Escherichia coli [22]): 4 ×10⁶ /s/M; Km (Escherichia coli [23]): 77 µM; kcat (Escherichia coli [23]): 370 s⁻¹; kcat/Km (Escherichia coli [24]): 4.1 ×10⁶ /s/M; kcat/Km (Escherichia coli [25]): 4.1 ×10⁶ /s/M
4 | CC1(C)S[C@@H]2[C@H](NC(=O)[C@H](N)c3ccccc3)C(=O)N2[C@H]1C(=O)O [AMPICILLIN] | 1020 (≈ 2930 µM) | 512 (≈ 1470 µM) | 128 (≈ 366 µM) | 1 (≈ 2.86 µM) | 256 (≈ 733 µM) | 4100 (≈ 11700 µM) | 512 (≈ 1470 µM) | 256 (≈ 733 µM) | 512 (≈ 1470 µM) | 1020 (≈ 2930 µM) | 38 | 27 | 1.1 ×10⁶ /s/M | 35 | 37 | 21 | 27 | 7.2 ×10⁵ /s/M | 1.2 ×10⁶ /s/M | 26 | kcat (Escherichia coli [17]): 39 s⁻¹; Km (Escherichia coli [26]): 25 µM; kcat (Escherichia coli [26]): 28 s⁻¹; kcat/Km (Escherichia coli [18]): 2.5 ×10⁶ /s/M; Km (Escherichia coli [19]): 25 µM; kcat (Escherichia coli [19]): 33 s⁻¹; Km (Escherichia coli [20]): 20 µM; kcat (Escherichia coli [20]): 38 s⁻¹; kcat/Km (Escherichia coli [21]): 1.3 ×10⁶ /s/M; kcat/Km (Escherichia coli [22]): 1.9 ×10⁶ /s/M; Km (Escherichia coli [23]): 120 µM; kcat (Escherichia coli [23]): 310 s⁻¹; kcat/Km (Escherichia coli [24]): 1.5 ×10⁶ /s/M; kcat/Km (Escherichia coli [25]): 1.1 ×10⁶ /s/M
5 | B1 | – | – | – | – | – | – | – | – | – | – | – | – | – | – | – | – | – | – | – | – | kcat/Km [27]: 1.9 ×10⁶ /s/M; kcat/Km [28]: 1.5 ×10⁶ /s/M; kcat/Km [29]: 4.3 ×10⁶ /s/M; kcat/Km [30]: 1.9 ×10⁵ /s/M; kcat/Km [31]: 3.5 ×10⁶ /s/M; Km [32]: 210 µM; kcat [32]: 390 s⁻¹; Km [33]: 280 µM; kcat [33]: 420 s⁻¹; Km [34]: 190 µM; kcat [34]: 790 s⁻¹; Km [35]: 45 µM; kcat [35]: 8.3 s⁻¹; Km [36]: 24 µM; kcat [36]: 42 s⁻¹; Km [37]: 150 µM; kcat [37]: 530 s⁻¹
